{"source": "patent US20090265114A1", "about": "“Influenza virus neuraminidase crystal structure and their use thereof” (priority 2006, published 2009)", "origin": "cited, not measured here", "key": {"[1]": {"tested_on": "Group-1 enzymes with Arg-292->Lys", "details": "Group-1 enzymes compared with Group-2 NAs"}, "[2]": {"tested_on": "Group-1 NAs with His-274->Tyr"}, "[3]": {"tested_on": "Group-2 NAs with His-274->Tyr"}}, "data": [{"smiles": "CCOC(=O)C1=C[C@@H](OC(CC)CC)[C@H](NC(C)=O)[C@@H](N)C1", "note": "[oseltamivir]", "values": [{"measurement": "effect of the mutation Arg-292->Lys on oseltamivir resistance", "setting": "[1]", "result": "smaller effect"}, {"measurement": "resistance against oseltamivir caused by the mutation His-274->Tyr", "setting": "[2]", "result": "high resistance"}, {"measurement": "effect of the mutation His-274->Tyr on resistance against oseltamivir", "setting": "[3]", "result": "little effect"}]}]}
